Columns and labels:
Assay type in all cases: in vivo
[1] = test system: Echinochloa crus-galli; assay: Weed control pre-emergence (greenhouse pot test); set-up: key: 0: = ohne Wirkung bzw. Schaden; 1: = 0 - 20 % Wirkung bzw. Schaden; = 20 - 40 % Wirkung bzw. Schaden; 3: = 40 - 60 % Wirkung bzw. Schaden; 4: = 60 - 80 % Wirkung bzw. Schaden; 5: = 80 - 100 % Wirkung bzw. Schaden; conditions: pre-emergence, 2,5 kg a.i./ha, visual rating after 3-4 weeks
From the text: (§1) Die Schädigung der Unkrautpflanzen bzw. die Kulturpflanzenverträglichkeit wurde gemäß einem Schlüssel bonitiert, in dem die Wirksamkeit durch Wertzahlen von 0 - 5 ausgedrückt ist. Dabei bedeutet:
(§2) Samen bzw. Rhizomstücke von mono- und dikotylen Unkrautpflanzen wurden in Plasstiktöpfen (0 = 9 cm) in sandiger Lehmerde ausgelegt und mit Erde abgedeckt. Die in Form von benetzbaren Pulvern oder Emulsionskonzentraten formulierten erfindungsgemäßen Verbindungen wurden dann als wäßrige Suspensionen bzw. Emulsionen mit einer Wasseraufwandmenge von umgerechnet 600-800 1/ha in unterschiedlichen Dosierungen auf die Oberfläche der Abdeckerde appliziert. Nach der Behandlung wurden die Töpfe im Gewächshaus aufgestellt und unter guten Wachstumsbedingungen für die Unkrautpflanzen gehalten (Temperatur 23 plus/minus 1 Grad Celsius, relative Luftfeuchte 60-80 %).
(§3) Die optische Bonitur der Pflanzen- bzw. Auflaufschäden erfolgte nach dem Auflaufen der Versuchspflanzen nach einer Versuchszeit von 3-4 Wochen im Vergleich zu unbehandelten Kontrollen.

[2] = test system: Stellaria media; assay: Weed control pre-emergence (greenhouse pot test); set-up: key: 0: = ohne Wirkung bzw. Schaden; 1: = 0 - 20 % Wirkung bzw. Schaden; = 20 - 40 % Wirkung bzw. Schaden; 3: = 40 - 60 % Wirkung bzw. Schaden; 4: = 60 - 80 % Wirkung bzw. Schaden; 5: = 80 - 100 % Wirkung bzw. Schaden; conditions: pre-emergence, 2,5 kg a.i./ha, visual rating after 3-4 weeks
From the text: as §1, §2, §3

[3] = test system: Echinochloa crus-galli; assay: Weed control post-emergence (greenhouse pot test); set-up: key: 0: = ohne Wirkung bzw. Schaden; 1: = 0 - 20 % Wirkung bzw. Schaden; = 20 - 40 % Wirkung bzw. Schaden; 3: = 40 - 60 % Wirkung bzw. Schaden; 4: = 60 - 80 % Wirkung bzw. Schaden; 5: = 80 - 100 % Wirkung bzw. Schaden; conditions: post-emergence (three-leaf stage), 2,5 kg a.i./ha, visual rating after ca. 3-4 weeks
From the text: as §1
(§4) Samen bzw. Rhizomstüeke von mono- und dikotylen Unkräutern wurden in Plasstiktöpfen (φ= 9 cm) in sandigem Lehmboden ausgelegt, mit Erde abgedeckt und im Gewächshaus unter guten Wachstumsbedingungen angezogen. Drei Wochen nach der Aussaat wurden die Versuchspflanzen im Dreiblattstadium behandelt. Die als Spritzpulver bzw. als Eτulsionskonzentrate formulierten erfindungsgemäßen Verbindungen wurden in verschiedenen Dosierungen mit einer Wasseraufwandmenge von umgerechnet 600-800 l/ha auf die grünen Pflanzenteile gesprüht und nach ca. 3-4 Wochen Standzeit der Versuchspflanzen im Gewächshaus unter optimalen Wachstumsbedingungen (Temperatur 23°C +/- 1°C, relative Luftfeuchte 60-80 %) die Wirkung der Präparate optisch im Vergleich zu unbehandelten Kontrollen bonitiert.

[4] = test system: Stellaria media; assay: Weed control post-emergence (greenhouse pot test); set-up: key: 0: = ohne Wirkung bzw. Schaden; 1: = 0 - 20 % Wirkung bzw. Schaden; = 20 - 40 % Wirkung bzw. Schaden; 3: = 40 - 60 % Wirkung bzw. Schaden; 4: = 60 - 80 % Wirkung bzw. Schaden; 5: = 80 - 100 % Wirkung bzw. Schaden; conditions: post-emergence (three-leaf stage), 2,5 kg a.i./ha, visual rating after ca. 3-4 weeks
From the text: as §1, §4

[5] = test system: Avena sativa; assay: Weed control pre-emergence (greenhouse pot test); conditions: pre-emergence, 2,5 kg a.i./ha, visual rating after 3-4 weeks
From the text: as §1, §2, §3

[6] = test system: Chrysanthemum segetum; assay: Weed control pre-emergence (greenhouse pot test); conditions: pre-emergence, 2,5 kg a.i./ha, visual rating after 3-4 weeks
From the text: as §1, §2, §3

[7] = test system: Sinapis arvensis; assay: Weed control pre-emergence (greenhouse pot test); conditions: pre-emergence, 2,5 kg a.i./ha, visual rating after 3-4 weeks
From the text: as §1, §2, §3

[8] = test system: Avena sativa; assay: Weed control post-emergence (greenhouse pot test); conditions: post-emergence (three-leaf stage), 2,5 kg a.i./ha, visual rating after ca. 3-4 weeks
From the text: as §1, §4

[9] = test system: Chrysanthemum segetum; assay: Weed control post-emergence (greenhouse pot test); conditions: post-emergence (three-leaf stage), 2,5 kg a.i./ha, visual rating after ca. 3-4 weeks
From the text: as §1, §4

[10] = test system: Sinapis arvensis; assay: Weed control post-emergence (greenhouse pot test); conditions: post-emergence (three-leaf stage), 2,5 kg a.i./ha, visual rating after ca. 3-4 weeks
From the text: as §1, §4

Row | SMILES | Herbizide Wirkung im Vorauflauf ECG [1] | Herbizide Wirkung im Vorauflauf STM [2] | Herbizide Wirkung im Nachauflauf ECG [3] | Herbizide Wirkung im Nachauflauf STM [4] | Herbizide Wirkung im Vorauflauf AS [5] | Herbizide Wirkung im Vorauflauf CRS [6] | Herbizide Wirkung im Vorauflauf SIA [7] | Herbizide Wirkung im Nachauflauf AS [8] | Herbizide Wirkung im Nachauflauf CRS [9] | Herbizide Wirkung im Nachauflauf SIA [10]
1 | CCOC(OC(=O)c1cc(Oc2ccc(C(F)(F)F)cc2Cl)ccc1[N+](=O)[O-])C(Cl)(Cl)Cl (centres unmarked) [compound 5, 5-(2-Chlor-4-trifluormethylahenoxy)-2-nitrobenzoesäure-2,2,2-trichlor-1-ethoxyethylester] | 3 (= 40 - 60 % Wirkung bzw. Schaden) | 2 (= 20 - 40 % Wirkung bzw. Schaden) | 2 (= 20 - 40 % Wirkung bzw. Schaden) | 2 (= 20 - 40 % Wirkung bzw. Schaden) | 2 (= 20 - 40 % Wirkung bzw. Schaden) | 5 (= 80 - 100 % Wirkung bzw. Schaden) | 5 (= 80 - 100 % Wirkung bzw. Schaden) | 1 (= 0 - 20 % Wirkung bzw. Schaden) | 4 (= 60 - 80 % Wirkung bzw. Schaden) | 5 (= 80 - 100 % Wirkung bzw. Schaden)
2 | CC1(C)OCC(COC(OC(=O)c2cc(Oc3ccc(C(F)(F)F)cc3Cl)ccc2[N+](=O)[O-])C(Cl)(Cl)Cl)O1 (centres unmarked) [compound 6, 5-(2-Chlor-4-trifluormethylphenoxy)-2-nitrobenzoesäure-1-(2,2-dimethyl-1,3-dioxolan-4-yl)-methoxy-2,2,2-trichlorethylester] | 0 | 0 | 0 | 3 (= 40 - 60 % Wirkung bzw. Schaden) | 1 (= 0 - 20 % Wirkung bzw. Schaden) | 3 (= 40 - 60 % Wirkung bzw. Schaden) | 2 (= 20 - 40 % Wirkung bzw. Schaden) | 1 (= 0 - 20 % Wirkung bzw. Schaden) | 4 (= 60 - 80 % Wirkung bzw. Schaden) | 4 (= 60 - 80 % Wirkung bzw. Schaden)
3 | O=C(OC(OCC(F)(F)C(F)F)C(Cl)(Cl)Cl)c1cc(Oc2ccc(C(F)(F)F)cc2Cl)ccc1[N+](=O)[O-] (centres unmarked) [compound 7] | 5 (= 80 - 100 % Wirkung bzw. Schaden) | 2 (= 20 - 40 % Wirkung bzw. Schaden) | 3 (= 40 - 60 % Wirkung bzw. Schaden) | 5 (= 80 - 100 % Wirkung bzw. Schaden) | 3 (= 40 - 60 % Wirkung bzw. Schaden) | 5 (= 80 - 100 % Wirkung bzw. Schaden) | 3 (= 40 - 60 % Wirkung bzw. Schaden) | 2 (= 20 - 40 % Wirkung bzw. Schaden) | 5 (= 80 - 100 % Wirkung bzw. Schaden) | 5 (= 80 - 100 % Wirkung bzw. Schaden)
4 | N#CCCSCCOC(OC(=O)c1cc(Oc2ccc(C(F)(F)F)cc2Cl)ccc1[N+](=O)[O-])C(Cl)(Cl)Cl (centres unmarked) [compound 9] | 4 (= 60 - 80 % Wirkung bzw. Schaden) | 3 (= 40 - 60 % Wirkung bzw. Schaden) | 2 (= 20 - 40 % Wirkung bzw. Schaden) | 0 | 4 (= 60 - 80 % Wirkung bzw. Schaden) | 5 (= 80 - 100 % Wirkung bzw. Schaden) | 4 (= 60 - 80 % Wirkung bzw. Schaden) | 1 (= 0 - 20 % Wirkung bzw. Schaden) | 4 (= 60 - 80 % Wirkung bzw. Schaden) | 5 (= 80 - 100 % Wirkung bzw. Schaden)
5 | CCOC(=O)COC(OC(=O)c1cc(Oc2ccc(C(F)(F)F)cc2Cl)ccc1[N+](=O)[O-])C(Cl)(Cl)Cl (centres unmarked) [compound 22] | 5 (= 80 - 100 % Wirkung bzw. Schaden) | 2 (= 20 - 40 % Wirkung bzw. Schaden) | 5 (= 80 - 100 % Wirkung bzw. Schaden) | 3 (= 40 - 60 % Wirkung bzw. Schaden) | 4 (= 60 - 80 % Wirkung bzw. Schaden) | 5 (= 80 - 100 % Wirkung bzw. Schaden) | 5 (= 80 - 100 % Wirkung bzw. Schaden) | 5 (= 80 - 100 % Wirkung bzw. Schaden) | 5 (= 80 - 100 % Wirkung bzw. Schaden) | 5 (= 80 - 100 % Wirkung bzw. Schaden)
6 | CCOC(=O)C(C)OC(OC(=O)c1cc(Oc2ccc(C(F)(F)F)cc2Cl)ccc1[N+](=O)[O-])C(Cl)(Cl)Cl (centres unmarked) [compound 23] | 5 (= 80 - 100 % Wirkung bzw. Schaden) | 5 (= 80 - 100 % Wirkung bzw. Schaden) | 2 (= 20 - 40 % Wirkung bzw. Schaden) | 5 (= 80 - 100 % Wirkung bzw. Schaden) | 5 (= 80 - 100 % Wirkung bzw. Schaden) | 5 (= 80 - 100 % Wirkung bzw. Schaden) | 5 (= 80 - 100 % Wirkung bzw. Schaden) | 1 (= 0 - 20 % Wirkung bzw. Schaden) | 5 (= 80 - 100 % Wirkung bzw. Schaden) | 5 (= 80 - 100 % Wirkung bzw. Schaden)
7 | CCOC(=O)C(C)(C)OC(OC(=O)c1cc(Oc2ccc(C(F)(F)F)cc2Cl)ccc1[N+](=O)[O-])C(Cl)(Cl)Cl (centres unmarked) [compound 30] | 5 (= 80 - 100 % Wirkung bzw. Schaden) | 2 (= 20 - 40 % Wirkung bzw. Schaden) | 4 (= 60 - 80 % Wirkung bzw. Schaden) | 5 (= 80 - 100 % Wirkung bzw. Schaden) | 5 (= 80 - 100 % Wirkung bzw. Schaden) | 5 (= 80 - 100 % Wirkung bzw. Schaden) | 5 (= 80 - 100 % Wirkung bzw. Schaden) | 5 (= 80 - 100 % Wirkung bzw. Schaden) | 5 (= 80 - 100 % Wirkung bzw. Schaden) | 5 (= 80 - 100 % Wirkung bzw. Schaden)
8 | COC(=O)CC(OC(OC(=O)c1cc(Oc2ccc(C(F)(F)F)cc2Cl)ccc1[N+](=O)[O-])C(Cl)(Cl)Cl)C(=O)OC (centres unmarked) [compound 31] | 5 (= 80 - 100 % Wirkung bzw. Schaden) | 2 (= 20 - 40 % Wirkung bzw. Schaden) | 3 (= 40 - 60 % Wirkung bzw. Schaden) | 5 (= 80 - 100 % Wirkung bzw. Schaden) | 5 (= 80 - 100 % Wirkung bzw. Schaden) | 5 (= 80 - 100 % Wirkung bzw. Schaden) | 5 (= 80 - 100 % Wirkung bzw. Schaden) | 4 (= 60 - 80 % Wirkung bzw. Schaden) | 5 (= 80 - 100 % Wirkung bzw. Schaden) | 5 (= 80 - 100 % Wirkung bzw. Schaden)

Reference: patent EP0217101A1, “Substituted diphenyl ethers, process for their preparation and their use as herbicides” (HOECHST AKTIENGESELLSCHAFT, priority 1985, dated 1987)
